We go through nine compounds from PMC7389528, “Anti-tubercular derivatives of rhein require activation by the monoglyceride lipase Rv0183” (The Cell Surface, 2020).

Structures are written as SMILES. ≈ marks a conversion by molar mass, not a printed value. Like-named read-outs stand apart in the source and are kept apart here. Some results are limits rather than exact numbers.

For data set [1] the following is noted: 50 mM Tris pH 7.5, 200 mM NaCl, no enzyme, 37 °C, 1 h.
For data set [2], the system named is Vero cells. Put plainly: cells. Conditions: Chlorocebus sabaeus, MTT, cytotoxicity. The data set is classed as cell-based.
The test system of data set [3] is Mtb H37Rv. Put plainly: microbe, parasite or virus in culture. The data set is classed as cell-based. Conditions: Mycobacterium tuberculosis.
The nature of data set [4]: Liver microsome stability assay, human. Conditions: HLM, with NADPH, after 30 min, 1 μM compound. It counts as in vitro ADME. The procedure: (§1) The assay was performed with liver microsomes from male CD-1 mouse (Xenotech) and pooled human (Bioreclamation). Compounds HTB-03, HTB-04 and HTB-05 were tested at 1 μM with a final concentration of microsomal protein of 1 mg/mL. The reaction was initiated by the addition of NADPH (1 mM), and samples were incubated for up to […] at 37 °C in a shaking incubator. The reaction was terminated at 0, 5, 15 and 30 min by the addition of ice-cold ACN/MeOH (50:50) spiked with internal standard. Samples were centrifuged at 4000 rpm at 4 °C for 15 min and the supernatants analyzed by LC-MS/MS. The assay evaluated the metabolic stability of compounds by measuring the amount of parent remaining to test compounds with or without NADPH cofactor. LC-MS/MS: AB Sciex 4500 Qtrap; Kinetex 2.6 μm C18 100 Å column (3.0 mm × 30 mm); mobile phase A, 0.1% formic acid in H2O; mobile phase B, 0.1% formic acid in ACN; flow rate, 0.8 mL/min; room temperature.
(Liver microsomes are a subcellular fraction often used to study metabolism.)

Data set [5] can be described thus: Liver microsome stability assay, mouse. It counts as in vitro ADME, male CD-1 mouse. Conditions: MLM, with NADPH, after 30 min, 1 μM compound. The protocol:
as §1

The conditions of data set [6]: 50 mM Tris pH 7.5, 200 mM NaCl, 2% DMSO.
In data set [7] the test system is Mtb. Also on record: method as in Gajadeera et al., 2015. Conditions: ref Gajadeera et al., 2015, cited from earlier work.

Usually IC50 stands for the concentration that gives 50% inhibition. Low values mean greater potency in that assay, high ones weaker potency in that assay. As for `CC(=O)Oc1cccc2c1C(=O)c1c(OC(C)=O)cc(C(=O)O)cc1C2=O` [Diacerein, diacerein, reference compound], in data set [1], the “stability in the assay conditions (TLC)” value is reported as “degraded to rhein”. This compound also displayed an IC50 in data set [2] of 161 µM. For the same compound, in data set [3], the MIC is > 86.9 µM.

Consider `COC(=O)c1cc(O)c2c(c1)C(=O)c1cccc(O)c1C2=O` [HTB-01], for which the concentration for half-maximal inhibition (IC50) in data set [2] was > 215 µM. In data set [3], this compound registered an MIC of 6.37 µM (≈ 1.9 µg/mL).

In data set [2], `COC(=O)c1cc(OC(C)=O)c2c(c1)C(=O)c1cccc(OC(C)=O)c1C2=O` [HTB-02] gave an IC50 of 15.5 µM. In data set [3], this compound returned an MIC of 5.13 µM (≈ 1.96 µg/mL).

On to `O=C(OCCCCCl)c1cc(O)c2c(c1)C(=O)c1cccc(O)c1C2=O` [HTB-03], for which the “stability in the assay conditions (TLC)” value in data set [1] is “appeared stable”. In addition, the IC50 in data set [2] is > 171 µM. Moreover, the results for the Substrate remaining in data set [4] and in data set [5] were 92.8% and 66.3%, respectively. In addition, in data set [3], the MIC was found to be 2.56 µM (≈ 0.959 µg/mL).

On to `CC(=O)Oc1cccc2c1C(=O)c1c(OC(C)=O)cc(C(=O)OCCCCCl)cc1C2=O` [HTB-04], for which the half-maximal inhibitory concentration (IC50) in data set [2] amounted to 84 µM. Further, the results for the Substrate remaining in data set [4] and in data set [5] were 82.4% and 79.8%, respectively. Besides, the “solubility in the assay conditions” value in data set [6] was “limited solubility”. This compound came in with an MIC in data set [3] of 3.55 µM (≈ 1.63 µg/mL).

For the compound `CC1CCCC(C)C1OC(=O)c1cc(O)c2c(c1)C(=O)c1cccc(O)c1C2=O` (stereo not shown) [HTB-05], the half-maximal inhibitory concentration (IC50) in data set [2] is > 162 µM. For the same compound, the Substrate remaining in data set [4] amounted to 67.8%; in data set [5], 42.9%. Further, the MIC in data set [3] was determined as 3.9 µM (≈ 1.54 µg/mL).

In the case of `CC(=O)Oc1cccc2c1C(=O)c1c(OC(C)=O)cc(C(=O)OC3C(C)CCCC3C)cc1C2=O` (stereo not shown) [HTB-06], the IC50 in data set [2] is 58.1 µM. Also, in data set [3], the MIC is 7.31 µM (≈ 3.5 µg/mL).

In the case of `NNC(=O)c1ccncc1` [INH, isoniazid, reference compound], in data set [3], the MIC is 0.26 µM (≈ 0.0357 µg/mL).

`O=C(O)c1cc(O)c2c(c1)C(=O)c1cccc(O)c1C2=O` [Rhein, rhein]: the anti-tubercular activity entry is “does not exhibit anti-tubercular activity” in data set [7] and “does not inhibit Mtb” in data set [7] (listed as rhein). In addition, the IC50 in data set [2] worked out at 182 µM. The compound also came in with an MIC in data set [3] of 106 µM (≈ 30.2 µg/mL).
